Source: patent publication US5552427A, “Glutaminase inhibitory compounds, compositions, and methods of use” (Takeda Chemical Industries, Ltd., priority 1993, dated 1996)
In brackets after ≈: the same amount, converted by molar mass. Counter-ions that a name gives are not always drawn. Like-named read-outs stand apart in the source and are kept apart here. Values belong to the molecule of their own block, whether it stands above or below them.

Assays:
[1] = system: human colon carcinoma cells WiDr; experiment: In vitro cell proliferation inhibitory activity (Table 1), colon carcinoma cells WiDr, MTT; assay type: cell-based; conditions: 72 h, read-out: IC50, Colon carcinoma cells WiDr
[2] = system: human normal fetal pulmonary fibroblasts HEL; experiment: In vitro cell proliferation inhibitory activity (Table 1), normal cells HEL, MTT; assay type: cell-based; conditions: Pulmonary fibroblast, 72 h, read-out: IC50, Normal cells HEL
Colon carcinoma SW620 = experiment: Cell proliferation inhibitory test (Table 2); assay type: cell-based; conditions: Homo sapiens, SW-620; Colon carcinoma SW620 (Table 2); read-out: IC50, cell strain SW620
Protocol: (§1) to that in the control group was calculated, and the IC50 (i.e., a compound concentration required for decreasing the surviving cell amount to 50% of that in the control group) was calculated.

[3] = system: Breast carcinoma MDA-MB-231; experiment: Cell proliferation inhibitory test (Table 2); assay type: cell-based; conditions: Homo sapiens; Breast carcinoma MDA-MB-231 (Table 2); read-out: IC50, cell strain MDA-MB-231
Protocol: as §1

Colon carcinoma LoVo = experiment: Cell proliferation inhibitory test (Table 2); assay type: cell-based; conditions: Homo sapiens; Colon carcinoma LoVo (Table 2); read-out: IC50, cell strain LoVo
Protocol: as §1

Throat cancer KB = experiment: Cell proliferation inhibitory test (Table 2); assay type: cell-based; conditions: Throat cancer KB (Table 2); read-out: IC50, cell strain KB
Protocol: as §1

Breast carcinoma SK-BR-3 = experiment: Cell proliferation inhibitory test (Table 2); assay type: cell-based; conditions: Homo sapiens; Breast carcinoma SK-BR-3 (Table 2); read-out: IC50, cell strain SK-BR-3
Protocol: as §1

Colon carcinoma WiDr = experiment: Cell proliferation inhibitory test (Table 2); assay type: cell-based; conditions: Homo sapiens; Colon carcinoma WiDr (Table 2); read-out: IC50, cell strain WiDr
Protocol: as §1

Colon carcinoma LS180 = experiment: Cell proliferation inhibitory test (Table 2); assay type: cell-based; conditions: Homo sapiens; Colon carcinoma LS180 (Table 2); read-out: IC50, cell strain LS180
Protocol: as §1

Colon carcinoma SW48 = experiment: Cell proliferation inhibitory test (Table 2); assay type: cell-based; conditions: Homo sapiens; Colon carcinoma SW48 (Table 2); read-out: IC50, cell strain SW48
Protocol: as §1

Colon carcinoma SW403 = experiment: Cell proliferation inhibitory test (Table 2); assay type: cell-based; conditions: Homo sapiens, SW-403; Colon carcinoma SW403 (Table 2); read-out: IC50, cell strain SW403
Protocol: as §1

[4] = system: Breast carcinoma MDA-MB-453; experiment: Cell proliferation inhibitory test (Table 2); assay type: cell-based; conditions: Homo sapiens; Breast carcinoma MDA-MB-453 (Table 2); read-out: IC50, cell strain MDA-MB-453
Protocol: as §1

Colon carcinoma SW948 = experiment: Cell proliferation inhibitory test (Table 2); assay type: cell-based; conditions: Homo sapiens; Colon carcinoma SW948 (Table 2); read-out: IC50, cell strain SW948
Protocol: as §1

Lung carcinoma A549 = experiment: Cell proliferation inhibitory test (Table 2); assay type: cell-based; conditions: Homo sapiens; Lung carcinoma A549 (Table 2); read-out: IC50, cell strain A549
Protocol: as §1

Breast carcinoma T-47D = experiment: Cell proliferation inhibitory test (Table 2); assay type: cell-based; conditions: Homo sapiens, T47D; Breast carcinoma T-47D (Table 2); read-out: IC50, cell strain T-47D
Protocol: as §1

Colon carcinoma T84 = experiment: Cell proliferation inhibitory test (Table 2); assay type: cell-based; conditions: Colon carcinoma T84 (Table 2); read-out: IC50, cell strain T84
Protocol: as §1

Breast carcinoma Hs578T = experiment: Cell proliferation inhibitory test (Table 2); assay type: cell-based; conditions: Homo sapiens, Hs-578T; Breast carcinoma Hs578T (Table 2); read-out: IC50, cell strain Hs578T
Protocol: as §1

[5] = system: human colon carcinoma cells WiDr transplanted to nude mice; experiment: In vivo colon carcinoma inhibitory activity, WiDr transplanted to nude mice (Test Example 3); set-up: species or system human cells in Balb/C female nude mice; conditions: oral; for Proliferation rate (tumor volume, treated/control): 3 times a day for 3 days, control = 100
Protocol: In vivo colon carcinoma inhibitory activity
The human colon carcinoma cells WiDr (5,000,000 cells) were subcutaneously transplanted to a thoracic part of each of Balb/C female nude mice (7 weeks of age). On the 5th day after the transplantation, the tumor size was measured. Five mice (per group) with almost the same tumor size were used for this experiment. Each of solutions of 2-amino-1-methylimidazole hydrochloride (50 mg/kg body weight, 100 mg/kg body weight and 200 mg/kg body weight) of the present invention in physiological saline was orally administered 3 times a day for 3 days. The day following the end of the administration, the tumor size was measured. The tumor volume was calculated from the following equation:
(§2) Tumor volume=(major axis)×(minor axis)×(minor axis)×(1/2)
(§3) The ratio of the tumor volume in the treated group to that in a control group to which physiological saline was administered was calculated as a proliferation rate.

[6] = biological target: T1, mitochondrial membrane enzyme glutaminase (Homo sapiens, UniProt O94925); experiment: Inhibitory activity against the mitochondrial membrane enzyme glutaminase (crude enzyme of WiDr cells); assay type: biochemical; conditions: WiDr mitochondrial fraction, tritium-labelled glutamine 0.8 μM, phosphoric acid 200 mM, pH 8.0, 37° C., 15 minutes; read-out: IC50, enzymatic activity of glutaminase
T1 sequence (O94925 73-669 limits assumed): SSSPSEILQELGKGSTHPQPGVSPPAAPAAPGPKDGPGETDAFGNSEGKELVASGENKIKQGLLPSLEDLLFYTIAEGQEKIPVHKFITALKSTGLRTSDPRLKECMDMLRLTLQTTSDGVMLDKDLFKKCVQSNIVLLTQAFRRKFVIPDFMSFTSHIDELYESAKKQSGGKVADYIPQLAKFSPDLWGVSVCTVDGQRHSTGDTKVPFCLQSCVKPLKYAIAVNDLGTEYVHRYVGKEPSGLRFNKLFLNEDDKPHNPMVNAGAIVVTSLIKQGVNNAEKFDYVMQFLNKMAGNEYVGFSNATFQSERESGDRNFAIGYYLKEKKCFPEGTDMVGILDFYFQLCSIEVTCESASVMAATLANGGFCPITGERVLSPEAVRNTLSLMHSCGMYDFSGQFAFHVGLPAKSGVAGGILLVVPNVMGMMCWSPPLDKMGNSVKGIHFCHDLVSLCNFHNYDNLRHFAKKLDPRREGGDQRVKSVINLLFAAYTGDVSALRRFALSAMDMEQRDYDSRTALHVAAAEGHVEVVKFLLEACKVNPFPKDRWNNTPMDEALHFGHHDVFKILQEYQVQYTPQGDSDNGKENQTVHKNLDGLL

[7] = system: large intestinal cancer cell strains; experiment: Cell proliferation inhibitory tests, panel as a whole (selectivity in words); assay type: cell-based, human; conditions: large intestinal cancer cells / tumor cells
Protocol: A cellular suspension (50 μl, 2,000 cells) of the human colon carcinoma cells WiDr or human normal fetal pulmonary fibroblasts HEL was inoculated in a 96-well microplate, and incubated at 37° C. in a 5% carbonic acid gas incubator. The next day, a 2-fold serially diluted solution (50 μl) of each compound was added and incubated for 3 days. The culture broth containing the compound was removed, the cells were washed, MTT pigment solution was added, and the surviving cell number was determined (Tada et al., J. Immunol. Methods, 93, 157-165 (1986)). The cell amount in a control group not treated with the compound solution was used as a standard (100%). The ratio of the cell amount in each treated group to that in the control group was calculated, and the IC50 (i.e., a compound concentration required for decreasing the surviving cell amount to 50% of that in the control group) was calculated.
as §1

[8] = system: human colon carcinoma cells WiDr transplanted to nude mice; experiment: Activity of a compound having a protective group at the 2-amino group, WiDr transplanted to nude mice (Test Example 4); assay type: in vivo, human cells in Balb/C female nude mice; conditions: oral
Protocol: Activity of a compound having a protective group at the 2-amino group
The human colon carcinoma cells WiDr (5,000,000 cells) were subcutaneously transplanted to the thoracic parts of Balb/C female nude mice (7 weeks old). On the 5th day after the transplantation, the tumor cell size was measured. Five mice (per group) with almost the same tumor size were used for this experiment. A solution of 2-benzyloxycarbonylamino-1-methylimidazole hydrochloride (80 mg/kg body weight) of the present invention in physiological saline was orally administered 3 times a day for 3 days. The day following the end of the administration, the tumor cell size was measured. The tumor volume was calculated from the following equation:
as §2, §3

[9] = 3 days incubation, MTT (Table 1)
[10] = HEL, 3 days incubation, MTT (Table 1)

IC50 [1, 9]: 2.2 µg/mL
Compound: COc1ccc(C=Nc2nccn2C)cc1.Cl [Reference Example 9, N-(1-methylimidazol-2-yl)-4-methoxybenzylideneamine hydrochloride]
IC50 [2, 10]: > 80 µg/mL

IC50 [1, 9]: 1.4 µg/mL (≈ 7.56 µM)
Compound: Cn1ccnc1N=Cc1ccccc1 [Reference Example 7, N-(1-methylimidazol-2-yl)benzylideneamine]
IC50 [2, 10]: > 80 µg/mL

IC50 (Colon carcinoma SW620): 11 µg/mL | IC50 [3]: > 80 µg/mL | IC50 (Colon carcinoma LoVo): 7.6 µg/mL | IC50 (Throat cancer KB): > 80 µg/mL | IC50 (Breast carcinoma SK-BR-3): > 80 µg/mL | IC50 (Colon carcinoma WiDr): 1.1 µg/mL | IC50 (Colon carcinoma LS180): 6.3 µg/mL | IC50 (Colon carcinoma SW48): 8.6 µg/mL | IC50 (Colon carcinoma SW403): 5.2 µg/mL | IC50 [4]: > 80 µg/mL | IC50 (Colon carcinoma SW948): 3.9 µg/mL | IC50 (Lung carcinoma A549): 20 µg/mL | IC50 (Breast carcinoma T-47D): 13 µg/mL | IC50 (Colon carcinoma T84): 2.8 µg/mL | IC50 (Breast carcinoma Hs578T): 7 µg/mL | IC50 [1, 9]: 1.1 µg/mL | IC50 [6]: 30 mM
Compound: Cl.Cn1ccnc1N [2-Amino-1-methylimidazole hydrochloride]
Proliferation rate (tumor volume, treated/control) ([5]; 50 mg/kg): 76% | Proliferation rate (tumor volume, treated/control) ([5]; 100 mg/kg): 64% | Proliferation rate (tumor volume, treated/control) ([5]; 200 mg/kg): 49% | Inhibition of proliferation of transplanted WiDr (in words) ([5]; nude mice): inhibited the proliferation of the human colon carcinoma cell strain WiDr transplanted to the nude mice in a concentration-dependent manner | IC50 [2, 10]: > 80 µg/mL | Selective inhibition of proliferation (in words) [7]: selectively inhibits the proliferation of the large intestinal cancer cell strains

IC50 [1, 9]: 5 µg/mL (≈ 22.1 µM)
Compound: Cn1ccnc1NC(=O)CC[C@H](N)C(=O)O [Example 9, (2S)-2-amino-4-[(1-methylimidazol-2-yl)carbamoyl]butyric acid]
IC50 [2, 10]: > 80 µg/mL

IC50 [6]: 40 mM
Compound: COC(=O)[C@@H](N)Cn1ccnc1N [Example 5, 3-(2-aminoimidazol-1-yl)-L-alanine methyl ester dihydrochloride]

IC50 [1, 9]: 4.4 µg/mL | IC50 [6]: 50 mM
Compound: CCn1ccnc1N.Cl [2-Amino-1-ethylimidazole hydrochloride]
IC50 [2, 10]: > 80 µg/mL

IC50 [1, 9]: 4.2 µg/mL
Compound: C=CCn1ccnc1N.Cl [Example 1, 2-amino-1-(2-propenyl)imidazole hydrochloride]
IC50 [2, 10]: > 80 µg/mL

IC50 [1, 9]: 5 µg/mL
Compound: COC(=O)[C@@H](N)CCC(=O)Nc1nccn1C [Example 8, methyl (2S)-2-amino-4-[(1-methylimiazol-2-yl)carbamoyl]butyrate dihydrochloride]
IC50 [2, 10]: > 80 µg/mL

Compound: Cn1ccnc1NC(=O)OCc1ccccc1 [Example 4, 2-benzyloxycarbonylamino-1-methylimidazole hydrochloride]
Proliferation rate (tumor volume, treated/control) ([8]; 80 mg/kg, 3 times a day for 3 days, control = 100): 70% | Inhibition of proliferation of transplanted WiDr (in words) ([8]; nude mice): inhibited the proliferation of the human large intestinal cancer cell strain WiDr transplanted to nude mice

IC50 [1, 9]: 1.4 µg/mL | IC50 [6]: 100 mM
Compound: CN1CCN=C1N [2-Amino-1-methylimidazoline hydrochloride]
IC50 [2, 10]: > 80 µg/mL

IC50 [1, 9]: 11 µg/mL
Compound: COC(=O)[C@@H](N)CC(=O)Nc1nccn1C.Cl.Cl [Example 13, methyl (2S)-2-amino-3-[(1-methylimidazol-2-yl)carbamoyl]propionate dihydrochloride]
IC50 [2, 10]: > 80 µg/mL

Compound: Nc1ncc[nH]1.O=S(=O)(O)O [2-Aminoimidazole sulfate]
IC50 [1]: 12 µg/mL | IC50 [2]: > 80 µg/mL
